Where two headings read alike, the source gives them in different places. Marks after values point to notes of the source that are not given here.
Test: Simulating experiments: Pip-Taz powder incubated with potential impurities in glass vials, turbidity after reconstitution
Format: physicochemical
Method: In order to mimic and evaluate the impact of Ti, Al, Sn, Ni, Mg, Cr, and Si containing impurities on the turbidity of piperacillin and tazobactam formation, the following simulating experiments were carried out (reference 6.7, Notebook BB5254/125, 134, 140-141, 145-146). Powders of piperacillin and tazobactam were mixed with different potential impurities in glass vials and incubated at 40° C. for 3 weeks. […] [table]

[1] = 40° C. for 3 weeks in glass vial, 0.3 g Pip-Taz with 1-2 mg chemical, reconstituted in 12 mL 0.9% NaCl
[2] = 40° C. for 3 weeks, chemical without drug, 0.9% NaCl
[3] = Drug & Chemicals minus Chemical only, 40° C. for 3 weeks
[4] = conclusion from Table 2, by metal/element of the impurity

impact on the turbidity of piperacillin and tazobactam [4] | Molecule | Turbidity, Drug & Chemicals (Target Mole Ratio = 100:1, ~100 ppm for chemicals) [1] | Turbidity, Chemical only (~100 ppm) [2] | Turbidity Delta [3] | Turbidity, Drug & Chemicals | impact on the turbidity of piperacillin and tazobactam | Turbidity Delta | Turbidity, Chemical only (~100 ppm) | Turbidity, Drug & Chemicals (Target Mole Ratio = 100:1, ~100 ppm for chemicals)
substantial effect | CC(=O)/C=C(/C)[O-].CC(=O)/C=C(/C)[O-].[O]=[Ti+2] [titanium (IV) oxyacetylacetonate] | 179.33 | 5.44 | 173.89 | – | – | – | – | –
– | O=S(=O)([O-])[O-].[Mg+2] [magnesium sulfate] | – | – | – | 1.53* | no impact | – | – | –
– | CC(=O)[O-].CC(=O)[O-].CC(=O)[O-].CC(=O)[O-].[Sn+4] [tin (IV) acetate] | – | – | – | – | – | 1.04 | 0.08 | 1.13
substantial effect | aluminum chloride hydrate | 3.01 | 0.13 | 2.88 | – | – | – | – | –
– | O.O.O.O.O.O.[Cl][Cr]([Cl])[Cl] [chromium (Ill) chloride hexahydrate] | 15.60 | 0.18 | 15.42 | – | – | – | – | –
– | CC(=O)[O-].CC(=O)[O-].[Fe+2] [iron(ll) acetate] | 98.77 | 9.66 | 89.10 | – | – | – | – | –

Molecule | impact on the turbidity of piperacillin and tazobactam [4] | Turbidity, Drug & Chemicals (Target Mole Ratio = 100:1, ~100 ppm for chemicals) [1] | Turbidity, Chemical only (~100 ppm) [2] | Turbidity Delta [3] | Turbidity, Drug & Chemicals | impact on the turbidity of piperacillin and tazobactam | Turbidity Delta | Turbidity, Chemical only (~100 ppm) | Turbidity, Drug & Chemicals (Target Mole Ratio = 100:1, ~100 ppm for chemicals)
O[Si](O)(O)C1CCCCC1 [Cyclohexyl-dihydroxyl-hydroxylsilane] | substantial effect | 18.20 | 0.54 | 17.66 | – | – | – | – | –

— patent US20250387298A1, “FLEXIBLE MEDICAL CONTAINER” (B. Braun Melsungen AG, priority 2024, published 2025)
